From patent US20030166583A1, “Dermal cytochrome P450 1A inhibitors and enhancers” (priority 2002, published 2003)
Entries after “also recorded” stand apart in the source; their conditions may differ.

Assays:
[1] = system: dermal CYP1A; assay: Dermal microsomal CYP1A enzymatic activity (7-ethoxyresorufin-O-deethylase), inhibition or enhancement; conditions: for inhibitory effect on dermal CYP1A activity, in words: at certain concentration (1, 10 or 100 μM); for enhancing effect on dermal CYP1A activity, in words: at certain concentrations (1, 10 or 100 μM)
From the text: (§1) Nude mice were sacrificed by decapitation.
(§2) The precipitate containing the microsomes was obtained.

[2] = system: liver CYP1A; assay: Liver microsomal CYP1A enzymatic activity, inhibition or enhancement; conditions: for liver CYP1A activity (% of control group): liver microsomes
Protocol: Nude mice were sacrificed by decapitation. The skin and liver were immediately removed and kept in ice bath or 4° C. […] Connective tissue, blood, and fat were carefully removed from the tissue. Excess water content was removed from the homogenized tissue by tissue papers before the tissue was weighed.
The suspension of homogenized tissue in potassium chloride solution was transferred into a Teflon pestle-glass homogenizer for homogenization for six (6) times. Then, potassium chloride solution was added into the homogenized suspension to bring the volume to about four (4) times of the homogenized suspension. The diluted suspension was 5 transferred into a centrifuge tube and centrifuged at 4° C., 9000 xg, for twenty (20) minutes. The supernatant containing microsomes from skin or liver tissue and other soluble substance were removed and the volume of the supernatant was brought up to four (4) times of the weight of the tissue by adding potassium chloride solution. The diluted supernatant was transferred into a centrifuge tube and centrifuged at 4° C., 100,000 xg, for one (1) hour (Beckman L8-80M). The precipitate containing the microsomes was obtained. Potassium chloride solution was added into the precipitate to bring the volume up to four (4) times of the weight of the tissue, and the suspension was centrifuged at 4° C., 100,000 xg for one (1) hour, to obtain the washed microsomes, which were stored at −78° C. in 0.1M KH2PO4-K2HPO4 buffer (pH=7.4).
The enzymatic activity of CYP1A was determined based on the activity of 7-ethoxyresorufin-O-deethylase (i.e., for CYP1A) and 7-methoxyresorufin-O-demethylase (i.e., CYP1A2). […] Except for the blank group, the reaction was triggered by adding 0.54 μM NADPH. In the test tube (16×100 mm), the reaction was carried out for ten (10) minutes at constant temperature (37° C.) with vibration and without light Methanol 2.5 ml was added into the reaction mixture to stop the reaction. Protein precipitate was removed from the reaction mixture by centrifuging the reaction mixture at 180 xg for ten (10) minutes. The supernatant was tested for florescent intensity with 550 nm as the excitation wavelength and 585 nm the emission wavelength. The florescent intensity was compared with 0.01 μM-0.1 μM standard Rhodamine B solution to obtain the reading of the CYP1A enzyme activity.

[3] = system: CYP1A; assay: in vitro; conditions: nude, mouse
From the text: as §1, §2

[4] = at certain concentration (1, 10 or 100 μM)
[5] = compound 1 μM, skin microsomes, mean of at least 3 repeats
[6] = compound 10 μM, skin microsomes, mean of at least 3 repeats
[7] = compound 100 μM, skin microsomes, mean of at least 3 repeats
[8] = pH 7.8, dermal CYP1A activity (% of control group)

Row | SMILES | inhibitory effect on dermal CYP1A activity, in words [1] | enhancing effect on dermal CYP1A activity, in words [1] | inhibition of dermal CYP1A activity ([1]; compound 1 μM) | enhancing effect on liver CYP1A activity, in words [2, 4] | liver CYP1A activity (% of control group) ([2]; compound 1 μM) | liver CYP1A activity (% of control group) ([2]; compound 10 μM) | liver CYP1A activity (% of control group) ([2]; compound 100 μM) | dermal CYP1A activity (% of control group) [1, 5] | dermal CYP1A activity (% of control group) [1, 6] | dermal CYP1A activity (% of control group) [1, 7] | other results
1 | C=C(C)C1CC=C(C)CC1 (single isomer, unassigned; (+)) [(+)-Limonene] | inhibition effects | enhancing effects | about 51% |  |  |  |  |  |  |  | 
2 | Oc1cc(O)c2c(c1)O[C@H](c1ccc(O)c(O)c1)[C@@H](O)C2 [(+)-Catechin] | inhibition effects | enhancing effects | about 22% | enhancing effect | 90.00% | 120.23% | 116.48% | 78.10% | 91.97% | 99.99% | inhibitory effect on liver CYP1A activity, in words [2, 4]: inhibitory effects
3 | Oc1cc(O)c2c(c1)O[C@@H](c1ccc(O)c(O)c1)[C@@H](O)C2 [(+)-Epicatechin] | inhibition effects | enhancing effects | about 34% | enhancing effect | 124.29% | 129.86% | 130.95% | 65.55% | 86.15% | 105.09% | 
4 | Oc1cc(O)c2c(c1)O[C@H](c1ccc(O)c(O)c1)[C@H](O)C2 [(−)-Epicatechin] | inhibition effects | enhancing effects; also recorded: strongest enhancing effect |  | enhancing effect; also recorded: most enhancing effect | 133.54% | 139.91% | 147.44% | 85.69% | 121.77% | 129.82% | enhancing effect on liver CYP1A activity ([2]; compound 1 μM): about 34%; enhancement of dermal CYP1A activity ([1]; compound 10 μM): 22%; enhancement of dermal CYP1A activity ([1]; compound 100 μM): about 30%; enhancement of dermal microsomal CYP1A activity ([1]; concentration between about 10 μM and about 100 μM): at least 20%
5 | COc1ccc([C@@H]2CC(=O)c3c(O)cc(O)cc3O2)cc1O [Hesperetin] |  |  |  |  |  |  |  |  |  |  | dose dependence of the inhibitory effect on dermal CYP1A [1]: the higher the hesperetin concentration, the lower the inhibitory effect; dermal CYP1A activity (% of control group) ([1]; nude, mouse, 10 min, 1 µM, pH 7.8): 6.89%; activity at 10 min, 1 µM [3, 8]: ~7%; activity at 10 min, 10 µM [3, 8]: 24.6%; activity at 10 min, 100 µM [3, 8]: 66%; inhibition at 10 min, 1 µM ([3]; pH 7.8, inhibition of dermal CYP1A activity): > 90%
6 | C=C[C@H]1[C@H](O[C@@H]2O[C@H](CO)[C@@H](O)[C@H](O)[C@H]2O)OC=C2C(=O)OCC[C@]21O [Swertiamarin] |  |  |  |  |  |  |  |  |  |  | activity at 10 min, 1 µM ([3]; pH 7.8): 98.5%; activity at 10 min, 10 µM ([3]; pH 7.8): 96.5%; activity at 10 min, 100 µM ([3]; pH 7.8): 105%
7 | O=C/C=C/c1ccccc1 [Trans-cinnamaldehyde] |  |  |  |  |  |  |  |  |  |  | inhibition at 10 min, 100 µM ([3]; pH 7.8): ~80%
8 | COc1c(O)cc2oc(Oc3ccc(O)cc3)cc(=O)c2c1O [capillarisin, Capillarisin] | strong inhibitory effects |  |  |  |  |  |  |  |  |  | 
9 | O=c1cc(-c2ccc(O)c(O)c2)oc2cc(O)c([C@@H]3O[C@H](CO)[C@@H](O)[C@H](O)[C@H]3O)c(O)c12 [homoorientin] | strong inhibitory effects |  |  |  |  |  |  |  |  |  | 
